“Also recorded” adds a separate entry of the source.
Assays:
[1] = test system: outward potassium current; experiment: Whole-cell patch clamp recording of potassium current in stem cell-derived retinal ganglion cells; type: cell-based, human; details: Protocol A, 4-AP 1 mM
[2] = test system: human embryonic stem cell-derived retinal ganglion cells; experiment: Differentiation by other Wnt signaling pathway and Shh receptor activators, immunofluorescence of Islet-1 and NF200; type: cell-based; details: day 39, Protocol A schedule; BIO 2 μM, Norrin 50 ng/mL, purmorphamine 1 μM, RA 500 nM
Method: On day 14 after induction of differentiation, retinal progenitor cells generated in Example 3 were cultured and differentiated into immature retinal ganglion cells for 3 days in a differentiation medium [DMEM/F12 (Invitrogen), 1 mM L-glutamine (Invitrogen), 0.1 mM nonessential amino acids (Invitrogen), 0.1 mM mercaptoethanol (Sigma-Aldrich), 1% B27 supplement (Invitrogen), 1% N2 supplement (Invitrogen), 10 ng/mL Noggin, 10 ng/mL IGF-1, 5 ng/mL FGF2, 50 ng/mL recombinant Wnt3a (R&D Systems)] containing 2 μM BIO (6-bromoindirubin-3′-oxime) or 50 ng/mL Norrin as the Wnt signaling pathway activator instead of 50 ng/mL recombinant Wnt3a. On day 17 after induction of differentiation, immature retinal ganglion cells thus generated were cultured and differentiated into mature retinal ganglion cells for 5 days in a differentiation medium [DMEM/F12 (Invitrogen), 1 mM L-glutamine (Invitrogen), 0.1 mM nonessential amino acids (Invitrogen), 0.1 mM mercaptoethanol (Sigma-Aldrich), 1% B27 supplement (Invitrogen), 1% N2 supplement (Invitrogen), 10 ng/mL IGF-1, 250 ng/mL recombinant Shh (R&D Systems)] containing 1 μM purmorphamine as the Shh receptor activator instead of 250 ng/mL Shh. On day 22 after induction of differentiation, the mature retinal ganglion cells were matured for 39 days using a medium prepared by adding 500 nM retinoic acid (RA) to the above differentiation medium.
The immunofluorescence assay of the cells generated by this method was performed using retinal ganglion cell markers, Islet-1 and NF200, and the results were consistent with the results of using Wnt3a and Shh (FIG. 21).

AMPA receptor = experiment: Recording of spontaneous excitatory postsynaptic currents (sEPSCs) in stem cell-derived retinal ganglion cells; type: cell-based, human; details: H9-derived RGCs, CNQX 50 μM
[3] = test system: human pluripotent stem cell-derived retinal ganglion cell line; experiment: Live cell Ca2+ imaging of retinal ganglion cell line; type: cell-based; details: 1 mM glutamate stimulation; Fluo-4; passaged cell line
Method: For calcium imaging, cells cultured on 18 mm coverslip were washed with Tyrode's solution (119 mM NaCl, 2.5 mM KCl, 2 mM CaCl2), 2 mM MgCl2, 25 mM HEPES, 30 mM glucose, pH 7.4) twice or three times, and then cultured at 37° C. with addition of 1 μM Fluo-4-AM (Life technologies, Carlsbad, Calif., USA). After culturing for 15 min, cells were washed with Tyrode's solution for 10 min. Time differential images were obtained by using an Olympus IX-71 inverted microscope (Olympus, Tokyo, Japan) equipped with 40×(1.0 NA) oil lens and EMCCD (iXon887, Andor Technologies, Belfast, Northern Ireland) every 0.5 sec for 30 min. From the 10th image frame, cells were stimulated with 1 mM glutamate. After stimulation, cells were infused with Tyrode's solution.

[4] = test system: voltage-gated sodium channel; type: cell-based, human
retinal ganglion cells = experiment: Effects of Wnt3a, Shh and RA in Protocol A differentiation, immunofluorescence assay with retinal ganglion cell-specific markers; type: cell-based, human; parameters: production of retinal ganglion cells: dose or concentration left out as unconfirmed; details: day 39
Method: After being blocked for 90 min, the slides in each differentiation step were incubated overnight at 4° C. with antibodies specific to cells of each differentiation step as given in Table 1. Before use, these antibodies were diluted in a PBS solution containing 1% BSA and 0.25% Triton X-100. The cells cultured on the slides in each step were washed three times for 5 min with PBS and incubated at room temperature for 2 hr with species-specific secondary antibody conjugated with Cy3 (1:800, Jackson Immunoresearch Laboratory) or Alexa488 (1:500, Invitrogen) (Table 1). A standard material suitable for the primary and the secondary antibodies was used to examine non-specific staining or interaction between the antibodies. Thereafter, the cells were washed three times for 5 min with PBS, counterstained with DAPI (4′,6-diamidino-2 phenylindole) and mounted in Vectashield (Vector Laboratories), followed by visualization under an epifluorescence microscope (Nikon Eclipse, E800, Tokyo, Japan) and a confocal microscope (Zeiss LSM510, Carl Zeiss, Inc, Thornwood, N.Y., USA). 500 cells were counted from 20 microscopic fields randomly selected at 400 magnification and evaluated for positive responses to each antibody. Positive responses to antibodies were determined after at least three evaluations.
To examine effects of each of Wnt3a, Shh and RA used in the Protocol A differentiation method during production of retinal ganglion cells, respective factors were treated according to a differentiation schedule of Protocol A, and on day 39 after induction of differentiation, an immunofluorescence assay was performed using retinal ganglion cell-specific markers (FIG. 22).

Molecule: Nc1ccncc1 [4-Aminopyridine, 4-aminopyridine]
- fast-activating fraction of outward potassium current ([1]; H9-derived RGCs, day 59): blocked
- fast-activating fraction of outward potassium current ([1]; iPSC-derived RGCs, day 39): blocked

Molecule: O=C1Nc2cc(Br)ccc2/C1=C1/Nc2ccccc2/C1=N\O [BIO, 6-bromoindirubin-3′-oxime]
- immunofluorescence staining of Islet-1 and NF200 compared with Wnt3a and Shh [2]: consistent with the immunofluorescence staining results of Wnt3a and Shh

Molecule: N#Cc1cc2c(cc1[N+](=O)[O-])=NC(=O)C(=O)N=2 [CNQX, 6-cyano-7-nitroquinoxaline-2,3-dione]
- appearance of sEPSCs (AMPA receptor; Protocol A, day 59): blocked
- appearance of sEPSCs (AMPA receptor; Protocol B, day 96): blocked

Molecule: N[C@@H](CCC(=O)O)C(=O)O [glutamate]
- cytoplasmic calcium level [3]: considerably increased; also recorded: considerable increase

Molecule: c1ccc2c(Oc3nc(Nc4ccc(N5CCOCC5)cc4)c4ncn(C5CCCCC5)c4n3)cccc2c1 [purmorphamine]
- immunofluorescence staining of Islet-1 and NF200 compared with Wnt3a and Shh [2]: consistent with the immunofluorescence staining results of Wnt3a and Shh

Molecule: NC1=N[C@H](O)[C@H]2[C@H]3O[C@]4(O)O[C@@H]([C@@H](O)[C@@]2(N1)[C@@H]4O)[C@]3(O)CO [tetrodotoxin]
- fast-activating and inactivating inward sodium currents [4]: completely blocked

B1: Dkkl: Wnt3a antagonist; recombinant Dickkopf-1, Wnt signaling pathway inhibitor (protein, UniProt O94907 32-266, looked up)
Dickkopf-related protein 1: TLNSVLNSNAIKNLPPPLGGAAGHPGSAVSAAPGILYPGGNKYQTIDNYQPYPCAEDEECGTDEYCASPTRGGDAGVQICLACRKRRKRCMRHAMCCPGNYCKNGICVSSDQNHFRGEIEETITESFGNDHSTLDGYSRRTTLSSKMYHTKGQEGSVCLRSSDCASGLCCARHFWSKICKPVLKEGQVCTKHRRKGSHGLEIFQRCYCGEGLSCRIQKDHHQASNSSRLHTCQRH
- production of retinal ganglion cells (retinal ganglion cells; instead of Wnt3a days 14 to 17, Shh and RA per schedule): hardly produced

B2: Norrin: Wnt signaling pathway activator; binds to Frizzled4 receptor (protein, UniProt Q00604 25-133, looked up)
Norrin: KTDSSFIMDSDPRRCMRHHYVDSISHPLYKCSSKMVLLARCEGHCSQASRSEPLVSFSTVLKQPFRSSCHCCRPQTSKLKALRLRCSGGMRLTATYRYILSCHCEECNS
- immunofluorescence staining of Islet-1 and NF200 compared with Wnt3a and Shh [2]: consistent with the immunofluorescence staining results of Wnt3a and Shh

B3: Wnt3a: recombinant Wnt3a, Wnt signaling pathway activator (protein, UniProt P56704 19-352, looked up)
Protein Wnt-3a: SYPIWWSLAVGPQYSSLGSQPILCASIPGLVPKQLRFCRNYVEIMPSVAEGIKIGIQECQHQFRGRRWNCTTVHDSLAIFGPVLDKATRESAFVHAIASAGVAFAVTRSCAEGTAAICGCSSRHQGSPGKGWKWGGCSEDIEFGGMVSREFADARENRPDARSAMNRHNNEAGRQAIASHMHLKCKCHGLSGSCEVKTCWWSQPDFRAIGDFLKDKYDSASEMVVEKHRESRGWVETLRPRYTYFKVPTERDLVYYEASPNFCEPNPETGSFGTRDRTCNVSSHGIDGCDLLCCGRGHNARAERRREKCRCVFHWCCYVSCQECTRVYDVHTCK
- caliber growth and fasciculation of axons (NF200 staining) (retinal ganglion cells; Protocol A schedule): delayed
- synaptogenesis and dendritic spine development (TUJ1 staining) (retinal ganglion cells; Protocol A schedule): no synaptogenesis and dendritic spine development
- retinal ganglion cells produced (retinal ganglion cells; factors treated per Protocol A schedule): ≥ 80%

From patent US11168302B2, “Method for differentiation into retinal ganglion cells from stem cells” (ClavisTherapeutics, INC., priority 2014, dated 2021)
